Experiment [1] deals with RET wild-type, mutant and/or fusion-type. Kind of experiment: Overall statement on RET inhibitory activity (summary of Table 3). The settings on record: statement in words summarising Table 3. The source says: As shown in the above table, the example compounds of the present disclosure have improved inhibitory activity against RET wild-type, mutant and/or fusion-type.

In experiment [2] the target is T1, Ret wt (Homo sapiens, UniProt P07949).
T1 construct: purchased Invitrogen PV3082
T1 sequence (P07949 29-1114): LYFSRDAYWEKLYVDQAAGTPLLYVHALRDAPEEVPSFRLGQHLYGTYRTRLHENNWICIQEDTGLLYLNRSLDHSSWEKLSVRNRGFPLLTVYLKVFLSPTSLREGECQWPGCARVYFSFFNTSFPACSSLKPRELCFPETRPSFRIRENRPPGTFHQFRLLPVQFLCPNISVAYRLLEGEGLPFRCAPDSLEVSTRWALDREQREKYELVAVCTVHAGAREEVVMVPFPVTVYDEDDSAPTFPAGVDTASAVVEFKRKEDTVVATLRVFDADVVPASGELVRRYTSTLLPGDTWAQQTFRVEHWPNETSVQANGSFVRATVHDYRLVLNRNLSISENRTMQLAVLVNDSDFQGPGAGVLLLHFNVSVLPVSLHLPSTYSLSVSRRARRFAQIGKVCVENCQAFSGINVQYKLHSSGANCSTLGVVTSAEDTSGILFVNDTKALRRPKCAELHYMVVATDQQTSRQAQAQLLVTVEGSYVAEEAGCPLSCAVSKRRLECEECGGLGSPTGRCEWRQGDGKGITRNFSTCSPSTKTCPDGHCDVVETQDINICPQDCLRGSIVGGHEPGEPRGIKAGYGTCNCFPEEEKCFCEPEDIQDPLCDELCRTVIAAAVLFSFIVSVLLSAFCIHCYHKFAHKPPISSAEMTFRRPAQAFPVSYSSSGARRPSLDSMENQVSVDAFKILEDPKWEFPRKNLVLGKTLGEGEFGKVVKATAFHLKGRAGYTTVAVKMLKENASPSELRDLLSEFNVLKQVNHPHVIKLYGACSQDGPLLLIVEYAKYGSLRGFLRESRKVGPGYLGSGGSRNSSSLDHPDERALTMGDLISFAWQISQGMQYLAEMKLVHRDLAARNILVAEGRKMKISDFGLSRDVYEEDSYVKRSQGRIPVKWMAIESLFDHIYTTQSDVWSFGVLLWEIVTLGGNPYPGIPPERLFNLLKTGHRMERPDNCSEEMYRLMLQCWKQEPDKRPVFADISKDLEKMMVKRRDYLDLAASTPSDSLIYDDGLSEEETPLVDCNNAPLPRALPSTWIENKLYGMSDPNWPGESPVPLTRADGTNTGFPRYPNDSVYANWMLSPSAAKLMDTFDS
Kind of experiment: HTRF kinase activity test, RET wild type. Type of experiment: biochemical.

Experiment [3] deals with T2, RET (V804L), activated (Homo sapiens, UniProt P07949, V804L).
T2 construct: purchased Signalchem R02-12BG-10
T2 sequence (P07949 29-1114 V804L): as the sequence (P07949 29-1114) above, with V776L counted along it
Kind of experiment: HTRF kinase activity test, RET V804L. Type of experiment: biochemical. The following applies: Table 2. As to the method:
This test combined peptide substrates and a single proprietary monoclonal antibody with HTRF technology, which was a highly sensitive and stable technology for detecting molecular interactions of proteins. The enzyme phosphorylates the substrate, then the Eu-labeled antibody binds to the phosphorylated substrate, and streptavidin-XL665 binds to all substrates. The TR-FRET signal was generated by the HTRF principle. […] Based on this, the inhibitory effect was evaluated.
(§1) The other compounds were diluted 3-fold gradiently with DMSO from the 10 mM stock solution to a total of 10 concentrations respectively.
(§2) Adding 4 volumes of distilled water to 1 volume of enzyme buffer 5×; 5 mM MgCl2; 1 mM DTT.
(§3) b) centrifuging the compound plate for 1 minute at 1000 g.
(§4) c) sealing the test board.
(§5) f) adding 4 μl of 1× kinase buffer to each well of the test plate, centrifuging the sample plate at 1000 g for 30 seconds, and placing it at room temperature for 10 minutes.
g) preparing a solution of 5× TK-substrate-biotin ([…]) in kinase buffer and 5×ATP (50 μM) in kinase buffer respectively. […]
(§6) The inhibition rate % was calculated as follows:
(§7) Inhibition rate %=[1−(fluorescence signal value of test compound−fluorescence signal value of positive control)/(average ratio of negative control−average ratio of positive control)]*100%
Ratio: generated from the measured fluorescence signal value […]
A general note: Time-resolved FRET reads energy transfer from a long-lived donor to a nearby acceptor.

Experiment [4] relates to TT Cell. Kind of experiment: Cell inhibitory activity test (CCK8). Type of experiment: cell-based. The settings on record: Homo sapiens, TT, Table 3, 72 hours incubation. Summed up:
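Cells seeded at 4000/well, pre-incubated 24 h (37 °C, 5% CO2), then exposed to graded compound concentrations for 72 h. Viability read by CCK8 at 450 nm after 1-2 h; IC50 fitted from concentration-absorbance data.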

Experiment [5] concerns the target T3, RET (V804M) (Homo sapiens, UniProt P07949, V804M).
T3 construct: purchased Signalchem R02-12GG
Kind of experiment: HTRF kinase activity test, RET V804M. Type of experiment: biochemical. The following applies: Table 3; read-out: RET Enzyme (V804M) IC50. As to the method:
This test combined peptide substrates and a single proprietary monoclonal antibody with HTRF technology, which was a highly sensitive and stable technology for detecting molecular interactions of proteins. The enzyme phosphorylates the substrate, then the Eu-labeled antibody binds to the phosphorylated substrate, and streptavidin-XL665 binds to all substrates. The TR-FRET signal was generated by the HTRF principle. Once the inhibitor (test compound) was added, a weaker TR-FRET signal is obtained. Based on this, the inhibitory effect was evaluated.
as §1, §2
a) Transferring 10 nl of the compound dilution (prepared in 5.2) to each well of the test plate (784075, Greiner);
as §3, §4
d) preparing 5×Ret wt (0.2 ng/μl) and 5×Ret V804L (0.5 ng/μl)/5×Ret V804M (0.5 ng/μl) in 1× kinase buffer respectively.
e) adding 2 μl of 5×Ret wt or 2 μl of Ret V804L/RET V804M to a 384-well test plate (784075, Greiner).
as §5
g) preparing a solution of 5× TK-substrate-biotin ([…]) in kinase buffer and 5×ATP (50 μM) in kinase buffer respectively.
h) starting the reaction by adding 2 μl STK-substrate-biotin and 2 μl ATP (prepared in the step g).
i) centrifuging the sample plate for 30 seconds at 1000 g. Sealing the test board and placing it at room temperature for 30 minutes.
j) preparing 4×Sa-XL 665 (250 nM) in HTRF detection buffer.
k) adding 5 μl of Sa-XL 665 and 5 μl of TK-antibody-Cryptate (prepared in the step i) to each well of the test plate.
) centrifuging at 1000 g for 30 seconds and placing it at room temperature for 1 hour.
m) reading the fluorescence signal values at 615 nm (Cryptate) and 665 nm (XL665) on the Envision 2104 plate reader.
Calculating the ratio of each hole (665 nm/615 nm).
as §6, §7
Ratio: generated from the measured fluorescence signal value
The average ratio of the positive control is the average ratio of the positive control (200 nM AT13148) in the sample plate;
The average ratio of negative controls is the average ratio of negative controls (0.1% DMSO) in the sample plate.
GraphPad 6.0 was used to fit the logarithm of the % inhibition rate and the compound concentration into a nonlinear regression (dose response−variable slope) to calculate the IC50 value.

The mark [6] stands for this setting: Table 2, read-out: IC50 (nM) RET wt.
Setting [7] is: Table 3, read-out: RET Enzyme (wild type) IC50.

We go through six compounds from patent US20210379056A1, “SUBSTITUTED PYRAZOLE FUSED RING DERIVATIVE, PREPARATION METHOD THEREFOR, AND APPLICATION THEREOF” (Applied Pharmaceutical Science, Inc., priority 2018, published 2021).

Read-outs that look alike come from different tables or passages of the source. Bounds are passed on as bounds.

One may read the IC50 as the midpoint of a concentration-inhibition curve.

T3 sequence (P07949 29-1114 V804M): as the sequence (P07949 29-1114) above, with V776M counted along it

On to `Cn1cc(-c2cc(-c3ccc(N4CCN(C(=O)Cc5ccc(F)cn5)CC4)nc3)c3c(C#N)c(N)nn3c2)cn1` [APS069, 2-amino-4-(6-(4-(2-(5-fluoropyridin-2-yl)acetyl)piperazin-1-yl)pyridin-3-yl)-6-(1-methyl-1H-pyrazol-4-yl)pyrazolo[1,5-a]pyridine-3-carbonitrile], for which, in experiment [1], the “inhibitory activity against RET wild-type, mutant and/or fusion-type” value (from here on “inhibitory activity”) is recorded as “excellent activity”. Further, the IC50 in experiment [2] (setting [6]) is 0.325 nM; in experiment [2] (setting [7]) it was under 1 nM; in experiment [3] it was 0.124 nM; in experiment [4], 28.8 nM.

Consider `Cn1cc(-c2cc(-c3ccc(N4CCC(Cc5ccccn5)CC4)nc3)c3c(C#N)c(N)nn3c2)cn1` [APS070, 2-amino-6-(1-methyl-1H-pyrazol-4-yl)-4-(6-(4-(pyridin-2-yl-methyl)piperidin-1-yl)pyridin-3-yl)pyrazolo[1,5-a]pyridine-3-carbonitrile], for which the “inhibitory activity” value in experiment [1] is “excellent activity”. Moreover, the IC50 in experiment [2] (setting [6]) is 0.418 nM; in experiment [2] (setting [7]) it was under 1 nM; in experiment [3], 0.0759 nM; in experiment [4], 15.6 nM.

`COCCOc1cc(-c2ccc(N3CC4CC(C3)N4Cc3cnc(OC)c(Cl)c3)nc2)c2c(C#N)c(N)nn2c1` [APS108, 2-amino-4-(6-(6-((5-chloro-6-methoxypyridin-3-yl)methyl)-3,6-diazabicyclo[3.1.1]heptane-3-yl)pyridin-3-yl)-6-(2-methoxyethoxy)pyrazolo[1,5-a]pyridine-3-carbonitrile]: the figures for the IC50 in experiment [5], in experiment [2] (setting [7]) and in experiment [4] were under 1 nM, under 1 nM and 10.7 nM, respectively. Moreover, in experiment [1], the “inhibitory activity” value was “excellent activity”.

Consider `CCOCCOc1cc(-c2ccc(N3CC4CC(C3)N4Cc3ccc(OC)nc3)nc2)c2c(C#N)c(N)nn2c1` [APS109, 2-amino-6-(2-ethoxyethoxy)-4-(6-(6-((6-methoxypyridin-3-yl)methyl)-3,6-diazabicyclo [3.1.1]heptan-3-yl)pyridin-3-yl)pyrazolo[1,5-a]pyridine-3-carbonitrile], for which the IC50 in experiment [5] was under 1 nM; in experiment [2] (setting [7]), under 1 nM; in experiment [4], 57.9 nM. In addition, in experiment [1], the “inhibitory activity” value is given as “excellent activity”.

Regarding `COc1ccc(CN2C3CC2CN(c2ccc(-c4cc(OCCOC5CC5)cn5nc(N)c(C#N)c45)cn2)C3)cn1` [APS113, 2-amino-6-(2-cyclopropoxyethoxy)-4-(6-(6-((6-methoxypyridin-3-yl)methyl)-3,6-diazabicyclo[3.1.1]heptan-3-yl)pyridin-3-yl)pyrazolo[1,5-a]pyridine-3-carbonitrile], the IC50 was under 1 nM in experiment [5], under 1 nM in experiment [2] (setting [7]) and 83.5 nM in experiment [4]. In experiment [1], the “inhibitory activity” value was “excellent activity”.

In the case of `COc1ccc(CN2C3CC2CN(c2ccc(-c4cc(OCCF)cn5nc(N)c(C#N)c45)cn2)C3)cn1` [APS119, 2-amino-6-(2-fluoroethoxy)-4-(6-(6-((6-methoxypyridin-3-yl)methyl)-3,6-diazabicyclo[3.1.1]heptan-3-yl)pyridin-3-yl)pyrazolo[1,5-a]pyridine-3-carbonitrile], the concentration for half-maximal inhibition (IC50) is under 1 nM in experiment [5], under 1 nM in experiment [2] (setting [7]) and 6.6 nM in experiment [4]. The “inhibitory activity” value in experiment [1] is “excellent activity”.
